Measured values reported in patent US20090215755A1, “USE OF A PYRAZOLE DERIVATIVE FOR PREPARING MEDICINAL PRODUCTS THAT ARE USEFUL IN THE PREVENTION AND TREATMENT OF DYSLIPIDAEMIAS AND OF DISEASES RELATED TO DYSLIPIDAEMIAS AND/OR TO OBESITY” (SANOFI-AVENTIS, priority 2003, published 2009).
Marks after values point to notes of the source that are not given here.

What was measured:
obese mice = experiment: Action of rimonabant on blood lipid levels in obese mice (2 months of treatment); type: in vivo; details: rimonabant 10 mg/kg/day oral
Method: The effect of a long-term (2 months) treatment with rimonabant was studied in mice having an established obesity.
The study was carried out in mice receiving either a normal diet or a fatty diet. Obesity developed in the mice receiving a fatty diet and it became stabilized after 5 months. The mice were then divided up into 3 groups:
group 1: maintenance of the fatty diet and oral treatment for 2 months with rimonabant at 10 mg/kg/day, in water with 0.1% of Tween 80 (vehicle);
group 2: maintenance of the fatty diet and administration of the vehicle (water+0.1% of Tween 80);
group 3: return to a normal diet and administration of the vehicle (water+0.1% of Tween 80);
group 4 consists of mice receiving a normal diet and the vehicle from the start.

obese patients [1] = experiment: Clinical trial of rimonabant on the lipid parameters, 4 weeks of treatment, obese patients; type: in vivo, human; details: for Improvement in metabolic syndrome / Weight loss / Decrease in triglycerides ≧10% / Increase in HDLc ≧10% / Blood glucose level: obese patients; for Improvement in metabolic syndrome: ATP III definition; for Weight loss: low-calorie diet; for Decrease in triglycerides ≧10% / Increase in HDLc ≧10%: share of patients; for Blood glucose level: signed values (change)
Method: A clinical trial was carried out for 4 weeks on 287 obese patients whose body mass index (BMI) was between 30 and 40. After having received the placebo for 2 weeks, the patients were randomized so as to receive doses of 5, 10 or 20 mg/day of rimonabant or the placebo.
There was a check-up visit 4 weeks after the end of the treatment.
For the duration of the study, the patients were asked to follow a low-calorie diet (deficit of 500 kcal/day).

[2] = system: obese individuals with dyslipidaemias; experiment: Rio Lipids clinical study, 12 months, obese individuals with dyslipidaemias; type: in vivo, human
Method: The Rio Lipids clinical study, carried out for 12 months in 1036 obese individuals with dyslipidaemias, compares the effect of rimonabant at a dose of 20 mg, versus a placebo product, in weight reduction, improvement in the lipid parameters and prevalence of metabolic syndrome. The treated group and the placebo group are subjected to a low-calorie diet.

obese fa/fa Zucker rats = experiment: Effect of rimonabant on steatosis and steatohepatitis in obese rats; type: in vivo; details: rimonabant 30 mg/kg/day oral, 2 months
Method: The effect of rimonabant on steatosis and steatohepatitis was studied in obese fa/fa Zucker rats.
For this study, 3 groups are formed: • thin rats/vehicle group: thin Zucker rats treated with the vehicle (water and 0.1% Tween 80); • obese rats/vehicle group: obese fa/fa Zucker rats treated with the vehicle (water and 0.1% Tween 80); • obese rats/rimonabant group: obese fa/fa Zucker rats treated orally for 2 months with rimonabant at 30 mg/kg/day, in the vehicle (water and 0.1% Tween 80).
After 2 months of treatment, the body weight and the weight of the liver are measured for each rat, and a histopathological analysis of the fat load in the livers is carried out.

obese patients [3] = details: clinical studies, Le Fur 2003; Heshmati et al. 2001; cited from earlier work
[4] = group 1: obese mice kept on fatty diet
[5] = group 1: obese mice, fatty diet
[6] = rimonabant groups 5, 10, 20 mg/day taken together

Cc1c(C(=O)NN2CCCCC2)nn(-c2ccc(Cl)cc2Cl)c1-c1ccc(Cl)cc1 [rimonabant, N-piperidino-5-(4-chlorophenyl)-1-(2,4-dichlorophenyl)-4-methylpyrazole-3-carboxamide]
HDLc/total cholesterol (obese mice; [4]): 62.2 ± 0.5 % | LDLc/total cholesterol (obese mice; [4]): 5.5 ± 0.3 % | glucose blood level (obese mice; [5]): decrease | insulin blood level (obese mice; [5]): decrease | leptin blood level (obese mice; [5]): decrease | Improvement in metabolic syndrome (obese patients [1]; 5 mg/d rimonabant): 42% | Weight loss (obese patients [1]; 5 mg/d rimonabant): 3.4 * kg | Decrease in triglycerides ≧10% (obese patients [1]; 5 mg/d rimonabant): 36% | Increase in HDLc ≧10% (obese patients [1]; 5 mg/d rimonabant): 43% | Blood glucose level (obese patients [1]; 5 mg/d rimonabant): −0.09 ** mmol/1 | Improvement in metabolic syndrome (obese patients [1]; 10 mg/d rimonabant): 39% | Weight loss (obese patients [1]; 10 mg/d rimonabant): 3.7 * kg | Decrease in triglycerides ≧10% (obese patients [1]; 10 mg/d rimonabant): 34% | Increase in HDLc ≧10% (obese patients [1]; 10 mg/d rimonabant): 45% | Blood glucose level (obese patients [1]; 10 mg/d rimonabant): −0.02 *** mmol/1 | Improvement in metabolic syndrome (obese patients [1]; 20 mg/d rimonabant): 21% | Weight loss (obese patients [1]; 20 mg/d rimonabant): 4.5 * kg | Decrease in triglycerides ≧10% (obese patients [1]; 20 mg/d rimonabant): 51% | Increase in HDLc ≧10% (obese patients [1]; 20 mg/d rimonabant): 44% | Blood glucose level (obese patients [1]; 20 mg/d rimonabant): +0.03 mmol/1 | blood glucose level (overall statement) (obese patients [1]; [6]): remains stable or decreases discretely | metabolic syndrome as defined by ATP III (overall statement) (obese patients [1]; [6]): tendency for the metabolic syndrome to improve | triglycerides (overall statement) (obese patients [1]; [6]): tendency for the triglycerides to decrease | adiponectin, starting level ([2]; rimonabant 20 mg group, before the year of treatment): 5.8 ± 2.7 µg/mL | adiponectin at the end of the year of treatment ([2]; rimonabant 20 mg, 12 months): 8.2 ± 4.2 µg/mL | increase in the HDLc level exceeding that of the placebo group ([2]; rimonabant 20 mg, 12 months, low-calorie diet): 11.3±1.7% | decrease in the triglyceride level exceeding that of the placebo group ([2]; rimonabant 20 mg, 12 months, low-calorie diet, p<0.001): 12.2±3.7 | weight loss greater than that observed in the placebo group ([2]; rimonabant 20 mg, 12 months, low-calorie diet, p≦0.001): 6.3 ± 0.5 kg | patients who stopped showing the metabolic syndrome characteristics ([2]; rimonabant 20 mg, 12 months, p<0.001 vs placebo): 60.2% | Liver weight/body weight ratio (obese fa/fa Zucker rats): 3.86 ± 0.07 % | decrease of the increase in the liver weight/body weight ratio seen in obese/vehicle rats (obese fa/fa Zucker rats): 80% | fat overload in the liver (histopathological analysis) (obese fa/fa Zucker rats): disappearance of this fat overload | body weight of obese patients (obese patients [3]): reduces the body weight of obese patients | food intake (obese patients [3]): acts on food intake from a quantitative and qualitative point of view
